According to patent US5428059A, “Benzopyran derivatives and an anti-allergic agent possessing the same as the active ingredient” (Dainippon Ink & Chemicals, Inc., priority 1991, dated 1995):

These compounds were tested on Hartley-type male guinea pigs (assay: Guinea Pig Homogeneous Skin Passive Anaphylaxis Assay (PCA reaction)). Conditions: Cavia porcellus, 10 mg/kg oral, 48 h after sensitization, read-out: Allergic reaction inhibitory index (%).
Type: in vivo, guinea pig (Hartley-type)
Method: In order to confirm the anti-allergic action of the compounds according to the present invention, as an anti-allergic action confirmation assay, the widely used Guinea Pig Homogeneous Skin Passive Anaphylaxis Assay (PCA Reaction Assay; Passive Cutaneous Anaphylaxis Reaction Assay) was carried out. The assay method used will be explained in the following.
Assay method: Hartley-type male guinea pigs (body weight: 250~300 g) were sensitized by the following procedure; a mixture of 2 μg of egg albumin (OVA) and 5 μg of aluminium hydroxide gel was administered intraperitoneally 3 times every 2 weeks, and the anti-OVA blood serum was manufactured.
The anti-blood serum obtained was then diluted 120 times using physiological saline solution, and then to groups each containing 6 shaved guinea pigs, was injected at a quantity of 0.05 ml respectively, into two positions in the back portion, inside the skin of each animal.
After the 48th hour of sensitization, 10 mg/kg of the test substance to be tested was orally administered, following which a mixture of 2 mg OVA and 5 mg of Evans Blue was administered by intraveneous injection into the hind leg, triggering the anaphylaxis reaction. As the positive control, Tranilast, a well known anti-allergic agent, was used, and in the same manner as the substances to be tested, 100 mg/kg of it was orally administered after the 48th hour of sensitization.
30 minutes after triggering the reaction, the animals were bled to death under ether anesthesia, and their back portion skins were peeled off. The long and short diameters of pigment leakage spots on the interior surface of the skins were measured, and the product of these (mm^2) were entered into formula 1 as "pigment leakage amount", from which the allergic reaction inhibitory index wins calculated. [formula]
I: Allergic reaction inhibitory index (%)
A: Pigment leakage amount of solvent control group
B: Pigment leakage amount of test substance group
C: Pigment leakage amount of […]
`CCCCCCCCCCOc1ccc2c(OC(C)=O)c(O)c(=O)oc2c1` [Compound 60, 3-hydroxy-4-(acetoxy)-7-(decyloxy)-2H-1-benzopyran-2-one] showed an inhibition in vivo at 10 mg/kg of 35%.
Compound `CCCCCCCCCCOc1ccc2c(OC(C)=O)c(OC(C)=O)c(=O)oc2c1` [Compound 61, 3,4-(diacetoxy)-7-(decyloxy)-2H-1-benzopyran-2-one] has an inhibition in vivo at 10 mg/kg of 30%.
Compound `CCCCCCCCCCOc1ccc2c(O)c(OC)c(=O)oc2c1` [Compound 62, 3-(methoxy)-4-hydroxy-7-(decyloxy)-2H-1-benzopyran-2-one] has an inhibition in vivo at 10 mg/kg of 43%.
In the case of `CCCCCCCCCCOc1ccc2c(OC(C)C)c(O)c(=O)oc2c1` [Compound 63, 3-hydroxy-4-(isopropoxy)-7-(decyloxy)-2H-1-benzopyran-2-one], the inhibition in vivo at 10 mg/kg is reported as 37%.
Work on `CCCCCCCCCCOc1ccc2c(OC(C)C)c(OC)c(=O)oc2c1` [Compound 64, 3-(methoxy)-4-(isopropoxy)-7-(decyloxy)-2H-1-benzopyran-2-one] yielded an inhibition in vivo at 10 mg/kg of 30%.
`CCCCCCCCCCOc1ccc2c(OC)c(OC(=O)c3ccccc3)c(=O)oc2c1` [Compound 65, 3-(benzoyloxy)-4-(methoxy)-7-(decyloxy)-2H-1-benzopyran-2-one] was tested, and the inhibition in vivo at 10 mg/kg was 32%.
`CCCCCCCCCCOc1ccc2c(OC)c(OC(C)C)c(=O)oc2c1` [Compound 66, 3-(isopropoxy)-4-(methoxy)-7-(decyloxy)-2H-1-benzopyran-2-one] gave an inhibition in vivo at 10 mg/kg of 30%.
Compound `CCCCCCCCCCOc1ccc2c(O)c(OC/C=C(\C)CCC=C(C)C)c(=O)oc2c1` [Compound 67, 3-(geranyloxy)-4-hydroxy-7-(decyloxy)-2H-1-benzopyran-2-one] has an inhibition in vivo at 10 mg/kg of 39%.
`CCCCCCCCCCOc1ccc2c(OC/C=C(\C)CCC=C(C)C)c(O)c(=O)oc2c1` [Compound 68, 3-hydroxy-4-(geranyloxy)-7-(decyloxy)-2H-1-benzopyran-2-one] showed an inhibition in vivo at 10 mg/kg of 32%.
`CCCCCCCCCCOc1ccc2c(OC(C)=O)c(OC/C=C(\C)CCC=C(C)C)c(=O)oc2c1` [Compound 69, 3-(geranyloxy)-4-(acetoxy)-7-(decyloxy)-2H-1-benzopyran-2-one] showed an inhibition in vivo at 10 mg/kg of 33%.
Work on `CCCCCCCCCCOc1ccc2c(OC/C=C(\C)CCC=C(C)C)c(OC(=O)c3ccccc3)c(=O)oc2c1` [Compound 70, 3-(benzoyloxy)-4-(geranyloxy)-7-(decyloxy)-2H-1-benzopyran-2-one] yielded an inhibition in vivo at 10 mg/kg of 30%.
`CCCCCCCCCCOc1ccc2c(OC)c(OC/C=C(\C)CCC=C(C)C)c(=O)oc2c1` [Compound 71, 3-(geranyloxy)-4-(methoxy)-7-(decyloxy)-2H-1-benzopyran-2-one] gave an inhibition in vivo at 10 mg/kg of 30%.
Work on `CCCCCCCCCCOc1ccc2c(OC/C=C(\C)CCC=C(C)C)c(OC(C)C)c(=O)oc2c1` [Compound 72, 3-(isopropoxy)-4-(geranyloxy)-7-(decyloxy)-2H-1-benzopyran-2-one] yielded an inhibition in vivo at 10 mg/kg of 34%.
`CCCCCCCCCCOc1ccc2c(OC/C=C(\C)CCC=C(C)C)c(OC/C=C(\C)CCC=C(C)C)c(=O)oc2c1` [Compound 73, 3-4-(digeranyloxy)-7-(decyloxy)-2H-1-benzopyran-2-one] showed an inhibition in vivo at 10 mg/kg of 30%.
`CC(C)=CCC/C(C)=C/COc1ccc2c(O)c(OC(=O)c3ccccc3)c(=O)oc2c1` [Compound 74, 3-(benzoyloxy)-4-hydroxy-7-(geranyloxy)-2H-1-benzopyran-2-one] was tested, and the inhibition in vivo at 10 mg/kg was 34%.
With `CC(C)=CCC/C(C)=C/COc1ccc2c(O)c(O)c(=O)oc2c1` [Compound 75, 3,4-(hydroxy)-7-(geranyloxy)-2H-1-benzopyran-2-one] the inhibition in vivo at 10 mg/kg was 45%.
In the case of `CC(=O)Oc1c(O)c(=O)oc2cc(OC/C=C(\C)CCC=C(C)C)ccc12` [Compound 76, 3-hydroxy-4-(acetoxy)-7-(geranyloxy)-2H-1-benzopyran-2-one], the inhibition in vivo at 10 mg/kg is reported as 32%.
`CC(=O)Oc1c(OC(=O)c2ccccc2)c(=O)oc2cc(OC/C=C(\C)CCC=C(C)C)ccc12` [Compound 77, 3-(benzoyloxy)-4-(acetoxy)-7-(geranyloxy)-2H-1-benzopyran-2-one] showed an inhibition in vivo at 10 mg/kg of 31%.
Work on `COc1c(O)c2ccc(OC/C=C(\C)CCC=C(C)C)cc2oc1=O` [Compound 78, 3-(methoxy)-4-hydroxy-7-(geranyloxy)-2H-1-benzopyran-2-one] yielded an inhibition in vivo at 10 mg/kg of 37%.
For `CC(C)=CCC/C(C)=C/COc1ccc2c(OC(C)C)c(O)c(=O)oc2c1` [Compound 79, 3-hydroxy-4-(isopropoxy)-7-(geranyloxy)-2H-1-benzopyran-2-one], the inhibition in vivo at 10 mg/kg was 32%.
Work on `CCCCCCCCCCOc1c(OC(C)C)c2ccc(OC/C=C(\C)CCC=C(C)C)cc2oc1=O` [Compound 80, 3-(decyloxy)-4-(isopropoxy)-7-(geranyloxy)-2H-1-benzopyran-2-one] yielded an inhibition in vivo at 10 mg/kg of 30%.
`CC(C)=CCC/C(C)=C/COc1ccc2c(OC(C)C)c(OC(=O)c3ccccc3)c(=O)oc2c1` [Compound 81, 3-(benzoyloxy)-4-(isopropoxy)-7-(geranyloxy)-2H-1-benzopyran-2-one] showed an inhibition in vivo at 10 mg/kg of 31%.
`COc1c(OC(C)=O)c2ccc(OC/C=C(\C)CCC=C(C)C)cc2oc1=O` [Compound 82, 3-(methoxy)-4-(acetoxy)-7-(geranyloxy)-2H-1-benzopyran-2-one] showed an inhibition in vivo at 10 mg/kg of 30%.
`CC(C)=CCC/C(C)=C/COc1ccc2c(O)c(OC/C=C(\C)CCC=C(C)C)c(=O)oc2c1` [Compound 83, 3,7-(digeranyloxy)-4-hydroxy-2H-1-benzopyran-2-one] gave an inhibition in vivo at 10 mg/kg of 34%.
With `CC(C)=CCC/C(C)=C/COc1ccc2c(OC/C=C(\C)CCC=C(C)C)c(O)c(=O)oc2c1` [Compound 84, 3-hydroxy-4,7-(digeranyloxy)-2H-1-benzopyran-2-one] the inhibition in vivo at 10 mg/kg was 30%.
Compound `CC(=O)Oc1c(OC/C=C(\C)CCC=C(C)C)c(=O)oc2cc(OC/C=C(\C)CCC=C(C)C)ccc12` [Compound 85, 3,7-(digeranyloxy)-4-(acetoxy)-2H-1-benzopyran-2-one] has an inhibition in vivo at 10 mg/kg of 33%.
`CC(C)=CCC/C(C)=C/COc1ccc2c(OC/C=C(\C)CCC=C(C)C)c(OC(=O)c3ccccc3)c(=O)oc2c1` [Compound 86, 3-(benzoyloxy)-4,7-(digeranyloxy)-2H-1-benzopyran-2-one] showed an inhibition in vivo at 10 mg/kg of 30%.
`COc1c(OC/C=C(\C)CCC=C(C)C)c(=O)oc2cc(OC/C=C(\C)CCC=C(C)C)ccc12` [Compound 87, 3,7-(digeranyloxy)-4-(methoxy)-2H-1-benzopyran-2-one] gave an inhibition in vivo at 10 mg/kg of 31%.
`CC(C)=CCC/C(C)=C/COc1ccc2c(OC/C=C(\C)CCC=C(C)C)c(OC(C)C)c(=O)oc2c1` [Compound 88, 3-(isopropoxy)-4,7-(digeranyloxy)-2H-1-benzopyran-2-one] gave an inhibition in vivo at 10 mg/kg of 30%.
For `O=C(Oc1c(O)c2cccc(O)c2oc1=O)c1ccccc1` [Compound 92, 3-(benzoyloxy)-4,8-dihydroxy-2H-1-benzopyran-2-one], the inhibition in vivo at 10 mg/kg was 33%.
With `O=c1oc2c(O)cccc2c(O)c1O` [Compound 93, 3,4,8-trihydroxy-2H-1-benzopyran-2-one] the inhibition in vivo at 10 mg/kg was 42%.
`CC(=O)Oc1c(O)c(=O)oc2c(O)cccc12` [Compound 94, 3,8-(dihydroxy)-4-(acetoxy)-2H-1-benzopyran-2-one] was tested, and the inhibition in vivo at 10 mg/kg was 36%.
`CC(=O)Oc1c(OC(C)=O)c2cccc(OC(C)=O)c2oc1=O` [Compound 95, 3,4,8-(triacetoxy)-2H-1-benzopyran-2-one] was tested, and the inhibition in vivo at 10 mg/kg was 30%.
Compound `CC(=O)Oc1c(OC(=O)c2ccccc2)c2cccc(O)c2oc1=O` [Compound 96, 3-(acetoxy)-4-(benzoyloxy)-8-hydroxy-2H-1-benzopyran-2-one] has an inhibition in vivo at 10 mg/kg of 32%.
For `CCCCCCCCCCOc1c(O)c2cccc(O)c2oc1=O` [Compound 97, 3-(decyloxy)-4,8-(dihydroxy)-2H-1-benzopyran-2-one], the inhibition in vivo at 10 mg/kg was 34%.
In the case of `CC(=O)Oc1c(OC(C)C)c2cccc(O)c2oc1=O` [Compound 100, 3-(acetoxy)-4-(isopropoxy)-8-hydroxy-2H-1-benzopyran-2-one], the inhibition in vivo at 10 mg/kg is reported as 30%.
`COc1c(OC(C)=O)c2cccc(O)c2oc1=O` [Compound 101, 3-(methoxy)-4-(acetoxy)-8-hydroxy-2H-1-benzopyran-2-one] was tested, and the inhibition in vivo at 10 mg/kg was 30%.
Compound `CC(C)=CCC/C(C)=C/COc1c(O)c2cccc(O)c2oc1=O` [Compound 102, 3-(geranyloxy)-4,8-(dihydroxy)-2H-1-benzopyran-2-one] has an inhibition in vivo at 10 mg/kg of 35%.
`CC(C)=CCC/C(C)=C/COc1c(O)c(=O)oc2c(O)cccc12` [Compound 103, 3,8-(dihydroxy)-4-(geranyloxy)-2H-1-benzopyran-2-one] was tested, and the inhibition in vivo at 10 mg/kg was 30%.
`CC(=O)Oc1c(OC/C=C(\C)CCC=C(C)C)c(=O)oc2c(O)cccc12` [Compound 104, 3-(geranyloxy)-4-(acetoxy)-8-hydroxy-2H-1-benzopyran-2-one] gave an inhibition in vivo at 10 mg/kg of 32%.
`CC(=O)Oc1c(OC/C=C(\C)CCC=C(C)C)c(=O)oc2c(OC(C)=O)cccc12` [Compound 105, 3-(geranyloxy)-4,8-(diacetoxy)-2H-1-benzopyran-2-one] was tested, and the inhibition in vivo at 10 mg/kg was 30%.
